“Also recorded” adds a separate entry of the source.
Key:
COL17A1 = COL17A1 expression in human epidermal keratinocytes by high content imaging (HCS); type: cell-based
Protocol: The present inventors further searched for substances that induce or maintain the expression of COL17A1. Human epidermal keratinocytes were seeded in 384-well plates, cultured for 48 hours after addition of reagents, immunostained with an anti-COL17A1 antibody and a fluorescently labeled secondary antibody, and then the fluorescence intensity per cell was detected using a high content imaging system (HCS: High Content Screening). In addition to cell counting with DAPI, the expression level of COL17A1 was quantified.

[1] = test system: human epidermal keratinocytes; test: Colony formation assay using human epidermal keratinocytes; type: cell-based
Text: To test whether COL17A1-mediated SCD maintains clonal proliferation of epidermal stem cell clones, the present inventors used a colony formation assay, which is an in vitro assay said to be the gold standard for assessing the self-renewal ability of epidermal stem cells, including cells in the tail epidermis.

[2] = test system: full thickness wounds in the skin of rodent tails; test: Full thickness wound healing in tail skin; type: in vivo, mice; conditions: day 0, day 14, day 21 (FIG. 12)
Protocol: To test the above hypothesis, the present inventors performed a full-layer wound healing experiment using the tail skin of aged wild-type mice. […] Forced expression of hCOL17A1 by basal layer keratinocytes in mice also promoted wound healing (FIG. 12). […] To confirm the beneficial effects in vivo, these drugs were administered to full thickness wounds in the skin of rodent tails.

[3] = test system: skin damage induced by erlotinib; test: Improvement of skin damage caused by erlotinib administration, TEWL (Example 10); type: in vivo, C57BL6N mice; conditions: 200 μM applied on the back once a day, five times a week; 7 weeks old or 6 months old mice; day 7 / day 12 (FIG. 19)
Protocol: Female […] mice (7 weeks old or 6 months old) were acclimatized to the experimental environment, and then hair was removed from their back under anesthesia. […] The control non-administered group received the 0.5% methylcellulose solution of the solvent in the same way. The control group applied with the solvent and the group applied with 200 μM apocynin received an aqueous solution of each preparation once a day, five times a week on the back. To the control solvent application group the solvent (50% ethanol/PBS) of apocynin was similarly applied.

## COc1cc(C(C)=O)ccc1O [Apocynin]
COL17A1; Table 1, human epidermal keratinocytes, 48 hours after addition of reagents, fluorescence intensity per cell
  COL17A1 expression level (control ratio): ⊚ (one double circle (⊚) represents a 1.2-fold or greater increase)
COL17A1; in vitro, HCS (FIG. 15)
  COL17A1 expression / amount of COL17A1 in cultured keratinocytes compared to the control: significantly increased; also recorded: maintain or induce the COL17A1 expression; also recorded: induce the COL17A1 expression
[1]; Table 1
  Colony area (control ratio): ⊚ (one double circle (⊚) indicates maintenance of 1.0-1.2-fold)
  Colony number (control ratio): ⊚ (one double circle (⊚) indicates maintenance of 1.0-1.2-fold)
[1]; compared to the control (FIG. 16)
  area of colonies per well: significantly increased
[1]; compared to the control, n=3 wells (FIG. 13, FIG. 16)
  number of colonies: significantly increased
[1]; compared to the control, n=3 wells (FIG. 14)
  average size of the top five colonies: significantly increased
[1]; human epidermal keratinocytes
  colony size: significantly increased
[1]; n=3 wells (FIG. 13 right)
  number of colonies with a diameter greater than 2 mm: significantly increased
[2]
  wound repair (unrepaired wound area): significantly accelerated; also recorded: significantly promote the wound repair process
[3]
  TEWL under erlotinib administration: significantly decreased

Source: patent US20260256870A1, “SKIN COMPOSITION” (Eaderm Co., Ltd., priority 2019, published 2026)
